From patent publication US20100261711A1, “SELECTIVE ANTICONVULSANT AGENTS AND THEIR USES” (WiSys Technology Foundation, priority 2009, published 2010)
Like-named read-outs stand apart in the source and are kept apart here.

How the values were obtained:
[1] = target: T1, GABAA/α4 (α4β3γ2 GABAA receptors) (Homo sapiens, UniProt P18507+P48169); test: Competitive binding assay, [3H]flunitrazepam
T1 construct: expressed in transfected cells
Experimental: (§1) The GABAA subunit selectivity of several compounds prepared as described above were determined using competitive binding assays. […] Membranes were harvested with a Brandel cell harvester followed by three ice-cold washes onto polyethyleneimine-pretreated (0.3%) Whatman GF/C filters. Filters were dried overnight and then soaked in Ecoscint, a liquid scintillation cocktail (National Diagnostics; Atlanta, Ga.). Bound radioactivity was quantified by liquid scintillation counting. Membrane protein concentrations were determined using an assay kit from Bio-Rad (Hercules, Calif.) with bovine serum albumin as the standard.

[2] = target: T2, GABAA/α6 (α6β3γ2 GABAA receptors) (Homo sapiens, UniProt P18507+Q16445); test: Competitive binding assay, [3H]flunitrazepam
T2 construct: expressed in transfected cells
Experimental: as §1

[3] = system: MES-induced seizures; test: Maximal electroshock test (MES), mice; type: in vivo; settings: Mice IP
Experimental: (§2) The benzodiazepine derivative compounds selective for GABAa receptor subunits were tested for the ability to suppress seizures in several standard rat and mouse models of epilepsy. […] The standard models incorporated into anticonvulsant screening include the maximal electroshock test (MES), the subcutaneous Metrazol test (scMet), and evaluations of toxicity (TOX). The data for each condition is presented as a ratio of either the number of animals protected or toxic (loss of locomotor activity) over the number of animals tested at a given time point and dose.
The MES is a model for generalized tonic-clonic seizures and provides an indication of a compound's ability to prevent seizure spread when all neuronal circuits in the brain are maximally active. These seizures are highly reproducible and are electrophysiologically consistent with human seizures. For all tests based on MES convulsions, 60 Hz of alternating current (50 mA in mice, 150 in rats) is delivered for by corneal electrodes which have been primed with an electrolyte solution containing an anesthetic agent (0.5% tetracaine HCL). For Test 1, mice are tested at various intervals following doses of 30, 100 and 300 mg/kg of test compound given by ip injection of a volume of 0.01 mL/g. In Test 2, rats are tested after a dose of 30 mg/kg (po) in a volume of 0.04 mL/g. Test 8 uses varying doses administered via i.p. injection, again in a volume of 0.04 ml/g. […] In Antiepileptic Drugs, Levy, R. H. M., Meldrum, B. S., Eds.; Raven Press: New York, pp 99-110, 1995b.).

[4] = system: minimal muscular or neurological impairment; test: Toxicity (TOX), rotorod procedure, mice; type: in vivo; settings: Mice IP
Experimental: as §2
(§3) To assess a compound's undesirable side effects (toxicity), animals are monitored for overt signs of impaired neurological or muscular function. […] When a mouse is placed on a rod that rotates at a speed of 6 rpm, the animal can maintain its equilibrium for long periods of time. The animal is considered toxic if it falls off this rotating rod three times during a 1-min period. In rats, minimal motor deficit is indicated by ataxia, which is manifested by an abnormal, uncoordinated gait. Rats used for evaluating toxicity are examined before the test drug is administered, since individual animals may have peculiarities in gait, equilibrium, placing response, etc., which might be attributed erroneously to the test substance.

[5] = system: minimal motor deficit (ataxia, abnormal gait); test: Toxicity (TOX), minimal motor deficit, rats; type: in vivo; settings: Rat PO, 50 mg/kg
Experimental: as §2, §3

[6] = system: Metrazol-induced clonic seizures; test: Subcutaneous Metrazol test (scMet), mice; type: in vivo; settings: Mice IP
Experimental: as §2
(§4) Subcutaneous injection of the convulsant Metrazol produces clonic seizures in laboratory animals. […] Animals are pretreated with various doses of the test compound (in a similar manner to the MES test, although a dose of 50 mg/kg (po) is the standard for Test 2 scMet). At the previously determined TPE of the test compound, the dose of Metrazol which will induce convulsions in 97% of animals (CD97: 85 mg/kg mice) is injected into a loose fold of skin in the midline of the neck. […] An episode of clonic spasms, approximately 3-5 seconds, of the fore and/or hindlimbs, jaws, or vibrissae is taken as the endpoint.

[7] = system: 6 Hz psychomotor seizure; test: Minimal clonic seizure (6 Hz) test; type: in vivo; settings: Mice IP; for ED50: Mus musculus, ip, 1 h, 1 Hr, read-out: ED50 (6 Hz)
Source text: Like the maximal electroshock (MES) test, the minimal clonic seizure (6 Hz) test is used to assess a compound's efficacy against electrically-induced seizures but uses a lower frequency (6 Hz) and longer duration of stimulation (3 s). Test compounds are pre-administered to mice via ip injection. […] Untreated mice will display seizures characterized by a minimal clonic phase followed by stereotyped, automatistic behaviors described originally as being similar to the aura of human subjects with partial seizures. Animals not displaying this behavior are considered protected (Table 10).

[8] = system: Metrazol-induced clonic seizures; test: Subcutaneous Metrazol test (scMet), rats; type: in vivo; settings: Rat PO, 50 mg/kg
Experimental: as §2, §4

[9] = target: T3, GABAA/α5 (α5β3γ2 GABAA receptors) (Homo sapiens, UniProt P18507+P31644); test: Competitive binding assay, [3H]flunitrazepam; settings: Binding Affinity at GABAA/α5, αxβ3γ2, [3H]flunitrazepam competition
T3 construct: expressed in transfected cells
Experimental: as §1

[10] = target: T4, GABAA/α3 (α3β3γ2 GABAA receptors) (Homo sapiens, UniProt P18507+P34903); test: Competitive binding assay, [3H]flunitrazepam; settings: Binding Affinity at GABAA/α3, αxβ3γ2, [3H]flunitrazepam competition
T4 construct: expressed in transfected cells
Experimental: as §1

[11] = target: T5, GABAA/α1 (α1β3γ2 GABAA receptors) (Homo sapiens, UniProt P14867+P18507); test: Competitive binding assay, [3H]flunitrazepam; settings: Binding Affinity at GABAA/α1, αxβ3γ2, [3H]flunitrazepam competition
T5 construct: expressed in transfected cells
Experimental: as §1

[12] = target: T6, GABAA/α2 (α2β3γ2 GABAA receptors) (Homo sapiens, UniProt P18507+P47869); test: Competitive binding assay, [3H]flunitrazepam; settings: Binding Affinity at GABAA/α2, αxβ3γ2, [3H]flunitrazepam competition
T6 construct: expressed in transfected cells
Experimental: as §1

C#Cc1ccc2c(c1)C(c1ccccc1F)=NC(C)c1c(C(=O)OCC)ncn1-2 (single isomer, unassigned) [SH-053-2′F-R-CH3, 8-Ethynyl-6-(2-fluorophenyl)-4-methyl-4H-2,5,10b-triaza-benzo[e]azulene-3-carboxylic acid ethyl ester]
Ki [1]: > 5000 nM
Ki [2]: > 5000 nM

C#Cc1ccc2c(c1)C(c1ccccc1F)=NC(C)c1c(C(=O)OCC)ncn1-2 (single isomer, unassigned) [SH-053-2′F-S-CH3, 8-Ethynyl-6-(2-fluorophenyl)-4-methyl-4H-2,5,10b-triazabenzo[e]azulene-3-carboxylic acid ethyl ester]
MES, animals protected/tested ([3]; 30 mg/kg, 0.5 Hr): 0/1
MES, animals protected/tested ([3]; 30 mg/kg, 4.0 Hr): 0/1
MES, animals protected/tested ([3]; 100 mg/kg, 0.5 hr): 0/3
MES, animals protected/tested ([3]; 100 mg/kg, 4.0 hr): 0/3
MES, animals protected/tested ([3]; 300 mg/kg, 0.5 Hr): 0/1
MES, animals protected/tested ([3]; 300 mg/kg, 4.0 Hr): 0/1
TOX (Rotorod Test), animals toxic/tested ([4]; 30 mg/kg, 0.5 Hr): 0/4
TOX (Rotorod Test), animals toxic/tested ([4]; 30 mg/kg, 4.0 Hr): 0/2
TOX (Rotorod Test), animals toxic/tested ([4]; 100 mg/kg, 0.5 hr): 1/8
TOX (Rotorod Test), animals toxic/tested ([4]; 100 mg/kg, 4.0 hr): 0/4
TOX (Rotorod Test), animals toxic/tested ([4]; 300 mg/kg, 0.5 Hr): 2/4
TOX (Rotorod Test), animals toxic/tested ([4]; 300 mg/kg, 4.0 Hr): 0/2
Tox, animals toxic/tested ([5]; 0.5 h): 0/4
Tox, animals toxic/tested ([5]; 1.0 h): 0/4
Tox, animals toxic/tested ([5]; 2.0 h): 0/4
Tox, animals toxic/tested ([5]; 4.0 h): 0/4
Tox, animals toxic/tested ([5]; […]): 0/4
scMet, animals protected/tested ([6]; 30 mg/kg, 0.5 Hr): 0/1
scMet, animals protected/tested ([6]; 30 mg/kg, 4.0 Hr): 0/1
scMet, animals protected/tested ([6]; 100 mg/kg, 0.5 hr): 2/5
scMet, animals protected/tested ([6]; 100 mg/kg, 4.0 hr): 0/1
scMet, animals protected/tested ([6]; 300 mg/kg, 0.5 Hr): 1/1
scMet, animals protected/tested ([6]; 300 mg/kg, 4.0 Hr): 0/1
6 Hz Time to Peak Effect, protected/tested ([7]; 30 mg/kg, 22 mA, 1.0 Hr): 6/8
6 Hz Time to Peak Effect, protected/tested ([7]; 30 mg/kg, 22 mA, 2.0 Hr): 2/8
6 Hz Time to Peak Effect, protected/tested ([7]; 50 mg/kg, 22 mA, 0.5 Hr): 1/4
6 Hz Time to Peak Effect, protected/tested ([7]; 50 mg/kg, 22 mA, 1.0 Hr): 3/4
6 Hz Time to Peak Effect, protected/tested ([7]; 50 mg/kg, 22 mA, 2.0 Hr): 3/4
6 Hz Time to Peak Effect, protected/tested ([7]; 100 mg/kg, 22 mA, 0.25 Hr): 2/4
6 Hz Time to Peak Effect, protected/tested ([7]; 100 mg/kg, 22 mA, 0.5 Hr): 4/4
6 Hz Time to Peak Effect, protected/tested ([7]; 100 mg/kg, 22 mA, 1.0 Hr): 4/4
6 Hz Time to Peak Effect, protected/tested ([7]; 100 mg/kg, 22 mA, 2.0 Hr): 4/4
6 Hz Time to Peak Effect, protected/tested ([7]; 100 mg/kg, 22 mA, 4.0 Hr): 2/4
6 Hz Time to Peak Effect, protected/tested ([7]; 100 mg/kg, 32 mA, 0.25 Hr): 2/4
6 Hz Time to Peak Effect, protected/tested ([7]; 100 mg/kg, 32 mA, 0.5 Hr): 1/4
6 Hz Time to Peak Effect, protected/tested ([7]; 100 mg/kg, 32 mA, 1.0 Hr): 4/4
6 Hz Time to Peak Effect, protected/tested ([7]; 100 mg/kg, 32 mA, 2.0 Hr): 2/4
6 Hz Time to Peak Effect, protected/tested ([7]; 100 mg/kg, 32 mA, 4.0 Hr): 2/4
ED50 ([7]; 22 mA): 14.2 mg/kg
ED50 ([7]; 32 mA): 71.2 mg/kg
Ki [1]: > 5000 nM
Ki [2]: > 5000 nM
scMet, animals protected/tested ([8]; 0.5 h): 0/4
scMet, animals protected/tested ([8]; 1.0 h): 0/4
scMet, animals protected/tested ([8]; 2.0 h): 1/4
scMet, animals protected/tested ([8]; 4.0 h): 0/4
scMet, animals protected/tested ([8]; […]): 1/4

C#Cc1ccc2c(c1)C(c1ccccc1)=NC(C)c1c(C(=O)OCC)ncn1-2 (single isomer, unassigned) [SH-053-R-CH3, 8-Ethynyl-4-methyl-6-phenyl-4H-2,5,10b-triaza-benzo[e]azulene-3-carboxylic acid ethyl ester]
Ki ([1]; read-out: Binding Affinity at GABAA/α4, αxβ3γ2, [3H]flunitrazepam competition): > 5000 nM
Ki [9]: 949 nM
Ki [10]: 1180 nM
Ki [11]: 2030 nM
Ki ([2]; read-out: Binding Affinity at GABAA/α6, αxβ3γ2, [3H]flunitrazepam competition): > 5000 nM
Ki [12]: 2380 nM
